Assay results taken from patent publication US12023378B2, “Covalently linked antigen-antibody conjugates” (Hoffmann-La Roche Inc., priority 2012, dated 2024).

Key:
[1] = Dig-peptide serum kinetic: Western blot detection of digoxigenylated polypeptide in serum; assay type: in vivo, mouse
Procedure: (§1) Serum samples were stored at −80° C.
The determination of the amount of digoxigenylated peptide in the serum at the given time points was difficult compared to the detection of Dig-Cy5 as no direct means to detect the polypeptide in serum samples was available. Therefore, a Western-Blot related assay to detect digoxigenylated peptide in serum was established. In a first step, the serum samples were separated on reducing SDS-PAGE. Because sample preparation included exposure of the serum to high concentrations of SDS and reducing agents, complexed Dig-polypeptide conjugates can become released from the (completely denatured/unfolded) anti-digoxigenin antibody, whereas covalently conjugates remained bound. To mediate the release of the polypeptide from the non-covalent antibody complex and separate the individual components by SDS-PAGE, 2 μl of each serum sample was diluted in 18 μl 20 mM histidine/140 mM NaCl pH 6.0, mixed with 6.7 μl of 4×LDS sample buffer and 3 μl of 10× sample reducing agent (NuPAGE, Invitrogen) for 5 min at 95° C. As a control, 2 μl of serum of an untreated mouse of the same strain was used. […] Digoxigenylated polypeptides were subsequently detected on the membrane with an anti-digoxigenin antibody. […] Chemiluminescence was detected with the Lumilmager F1 (Roche) with an exposure time of 20 min.

[2] = mouse, in vivo
From the text: The control group was not pre-injected with the anti-biotin antibody.

[3] = mouse, in vivo; remark: listed apart in the source
Procedure: The objective of the described peptide modification technology is to improve the therapeutic applicability of peptides. Major bottlenecks for therapeutic application of peptides are currently limited stability in vivo and/or short serum half-life and fast clearance. The PK parameters of antibody conjugates of fluorophores were determined in vivo and compare with the PK of non-covalent antibody-fluorophore complexes. Therefore, (i) the anti-biotin antibody VH53C was covalently conjugated to the biotinylated fluorophore Biot-Cys-Cy5, (ii) a non-covalent complex of the anti-biotin antibody with biotinylated fluorophore Biot-Cy5 was generated, (iii) the covalently conjugated and the non-covalently complexed compounds were applied to animals and (iv) the serum concentrations of the compounds over time in these animals was measured by determination of the fluorescence of Cy5 (A650), and that of the corresponding antibody by an ELISA method that specifically detects the humanized antibody.
as §1

Compound | presence of digoxigenylated polypeptide in serum (Western blot signal) ([1]; 32.1 nmol, 0.08 h to 24 h after administration, FIG. 35) | half-life / persistence in the serum of mice ([1]; Western blot, up to 24 hrs.) | serum half-life and exposure levels [2] | relative Cy5-mediated fluorescence in serum [3]
CC[C@H](C)[C@H](NC(C)=O)C(=O)N[C@@H](CCCCNC(=O)CCOCCOCCOCCNC(=O)CO[C@H]1CC[C@@]2(C)[C@H](CC[C@@H]3[C@@H]2C[C@@H](O)[C@]2(C)[C@@H](C4=CC(=O)OC4)CC[C@]32O)C1)C(=O)N1CCN(c2ccc3ncn(CC(=O)N[C@@H](CCCNC(=N)N)C(=O)N[C@@H](Cc4c[nH]cn4)C(=O)N[C@@H](Cc4ccc(O)cc4)C(=O)N[C@@H](CC(C)C)C(=O)N[C@@H](CC(N)=O)C(=O)N[C@@H](Cc4c[nH]c5ccccc45)C(=O)N[C@H](C(=O)N[C@H](C(=O)N[C@@H](CCCNC(=N)N)C(=O)N[C@@H](CCC(N)=O)C(=O)N(C)[C@@H](CCCNC(=N)N)C(=O)N[C@@H](Cc4ccc(O)cc4)C(N)=O)[C@@H](C)O)C(C)C)c(=O)c3c2)CC1 [non-complexed polypeptide] | barely any signal associable to the small polypeptide was detectable even at the earliest time point | very short half-life | – | –
Biotin-O2Oc-Ser-O2Oc-DADOO-Cy5 [Biotin-Ser-Cy5] | – | – | low serum half-life and low exposure levels | not detectable
